# Assay results from US20220142955A1, “METHODS OF TREATING ORGANIC ACIDEMIAS” (HemoShear Therapeutics, Inc., priority 2019, published 2022).
# Read-outs that look alike come from different tables or passages of the source.
# Assays:
# Assay type in all cases: cell-based, human
# MMA primary hepatocytes = experiment: Static cell culture, low/high propiogenic media, MMA primary hepatocytes; settings: MMA pHeps; for EC50 / EC90: Homo sapiens, Hepatocyte
# Description: (§1) Unlike the HemoShear Technology, this assay is carried out without constant perfusion, utilizing cell culture media that was customized to mimic plasma levels of propiogenic sources (amino acids and ketoacids) in PA and MMA patients during periods of relative metabolic stability (low propiogenic media) and acute metabolic crisis (high propiogenic media). PA and MMA pHeps, in static cell culture, were treated with Compound 5 (concentrations ranging from 0.1 μM to 100 μM) for 30 minutes in low propiogenic media, followed by either a continuation of low propiogenic media or a switch to the high propiogenic media for 1 hour. The media used during the 1-hour incubation contained propiogenic SIL amino acids and ketoacids which are metabolized into labeled P-CoA and M-CoA in the cells. The SIL amino acids and ketoacids were a mix of ^13C and MeD8 labelling, but their catabolism produced a SIL P-CoA (denoted as ^13C-P-CoA for simplicity) with the same mass, independent of the type of SIL (also true for ^13C-M-CoA).
# [1] = tested on: primary hepatocytes of propionic acidemia patients; experiment: Propionyl-CoA from various sources in PA primary hepatocytes (Examples 2, 3); settings: Homo sapiens, Hepatocyte, read-out: concentration of propionyl-CoA EC50
# Description: Primary hepatocytes isolated from livers of propionic acidemia patients are treated with increasing doses of compound 1 (0, 1, 3, 10, 30, 100, 300, 1000 μM) for 30 min. After 30 min the cells are challenged with the different sources of P-CoA, which may include ^13C-ketoisovaleric acid (KIVA) (1 mM), […] (ILE) (3 mM), ^13C-threonine (THR) (5 mM), ^13C-methionine (MET) (5 mM), ^13C-heptanoate (100 μM), or ^13C-propionate (5 mM) for 60 minutes. At the end of the challenge period, media is removed and the cells are lysed with 70% MeCN and 0.1% TFA containing 100 μM of ethymalonyl-CoA as an internal standard and harvested. Cell lysates are processed for HTMS/MS analysis.
# Primary hepatocytes isolated from livers of propionic acidemia patients are treated with increasing doses of compound 5 (0, 0.1, 0.3, 1, 3, 10, 30, 100 μM) for 30 minutes. After 30 minutes the cells are challenged with the different sources of P-CoA, which may include ^13C-KIVA (1 mM), ^13C-isoleucine (3 mM), ^13C-threonine (5 mM), ^13C-methionine (5 mM), ^13C-heptanoate (100 μM), or ^13C-propionate (5 mM) for 60 minutes. At the end of the challenge period, media is removed and the cells are lysed with 70% MeCN and 0.1% TFA containing 100 μM of ethymalonyl-CoA as an internal standard and harvested. Cell lysates are processed for HTMS/MS analysis.
# PA primary hepatocytes = experiment: Static cell culture, low/high propiogenic media, PA primary hepatocytes; settings: for EC50 / EC90: Homo sapiens, Hepatocyte
# Description: as §1
# [2] = tested on: normal primary hepatocytes; experiment: HemoShear Technology, normal primary hepatocytes (Example 11); settings: Normal pHeps
# [3] = high propiogenic, static culture
# [4] = low propiogenic, static culture
# [5] = PA pHeps, high propiogenic, static culture
# [6] = PA pHeps, low propiogenic, static culture
structure (smiles),measurement,setting,value
"CCC(C)(C)C(=O)O [Compound 5, 2,2-dimethybutanoic acid]",EC50,"MMA primary hepatocytes; high propiogenic media, static, read-out: 12C-Methylmalonyl-CoA (13C-M-CoA) EC50",2.7 ± 1.6 µM
same,EC90,"MMA primary hepatocytes; high propiogenic media, static, read-out: 12C-Methylmalonyl-CoA (13C-M-CoA) EC90",21.2 ± 2 µM
same,EC50,"MMA primary hepatocytes; high propiogenic media, static, read-out: 13C-Methymalonic acid EC50",1.1 ± 0.9 µM
same,EC90,"MMA primary hepatocytes; high propiogenic media, static, read-out: 13C-Methymalonic acid EC90",4.6 ± 3 µM
same,EC50,"MMA primary hepatocytes; high propiogenic media, static, read-out: 13C-Propionyl-CoA (13C-P-CoA) EC50",1.6 ± 0.8 µM
same,EC90,"MMA primary hepatocytes; high propiogenic media, static, read-out: 13C-Propionyl-CoA (13C-P-CoA) EC90",48.2 ± 47.5 µM
same,EC50,"MMA primary hepatocytes; high propiogenic, static culture, read-out: 12C-Acetyl-CoA EC50",1.4 ± 1.4 µM
same,EC90,"MMA primary hepatocytes; high propiogenic, static culture, read-out: 12C-Acetyl-CoA EC90",6.4 ± 7.1 µM
same,EC50,"MMA primary hepatocytes; high propiogenic, static culture, read-out: CoASH EC50",13.1 ± 14.8 µM
same,EC90,"MMA primary hepatocytes; high propiogenic, static culture, read-out: CoASH EC90",65.6 ± 81.2 µM
same,EC50,"MMA primary hepatocytes; high propiogenic, static culture, read-out: Compound 5-CoA (formation) EC50",5.4 ± 2.8 µM
same,EC90,"MMA primary hepatocytes; high propiogenic, static culture, read-out: Compound 5-CoA (formation) EC90",80.1 ± 57 µM
same,EC50,"MMA primary hepatocytes; low propiogenic media, static, read-out: 12C-Methylmalonyl-CoA (13C-M-CoA) EC50",2.9 ± 1.6 µM
same,EC90,"MMA primary hepatocytes; low propiogenic media, static, read-out: 12C-Methylmalonyl-CoA (13C-M-CoA) EC90",30.9 ± 16.2 µM
same,EC50,"MMA primary hepatocytes; low propiogenic media, static, read-out: 13C-Methymalonic acid EC50",1.2 ± 1.3 µM
same,EC90,"MMA primary hepatocytes; low propiogenic media, static, read-out: 13C-Methymalonic acid EC90",5.2 ± 3.3 µM
same,EC50,"MMA primary hepatocytes; low propiogenic media, static, read-out: 13C-Propionyl-CoA (13C-P-CoA) EC50",1.3 ± 0.6 µM
same,EC90,"MMA primary hepatocytes; low propiogenic media, static, read-out: 13C-Propionyl-CoA (13C-P-CoA) EC90",15.7 ± 18 µM
same,EC50,"MMA primary hepatocytes; low propiogenic, static culture, read-out: 12C-Acetyl-CoA EC50",2.5 ± 2.6 µM
same,EC90,"MMA primary hepatocytes; low propiogenic, static culture, read-out: 12C-Acetyl-CoA EC90",28.4 ± 52 µM
same,EC50,"MMA primary hepatocytes; low propiogenic, static culture, read-out: CoASH EC50",2.3 ± 1.6 µM
same,EC90,"MMA primary hepatocytes; low propiogenic, static culture, read-out: CoASH EC90",14.2 ± 13.5 µM
same,EC50,"MMA primary hepatocytes; low propiogenic, static culture, read-out: Compound 5-CoA (formation) EC50",2 ± 0.7 µM
same,EC90,"MMA primary hepatocytes; low propiogenic, static culture, read-out: Compound 5-CoA (formation) EC90",18 ± 15.7 µM
same,12C-Methylmalonyl-CoA (13C-M-CoA) % change at 30 μM,"MMA primary hepatocytes; high propiogenic media, static",−73±5.8%
same,13C-Methymalonic acid % change at 30 μM,"MMA primary hepatocytes; high propiogenic media, static",−91 ± 4%
same,13C-Propionyl-CoA (13C-P-CoA) % change at 30 μM,"MMA primary hepatocytes; high propiogenic media, static",−75.9±7.3%
same,12C-Acetyl-CoA Percent change (30 μM),MMA primary hepatocytes; [3],−14.6 ± 12.6%
same,CoASH Percent change (30 μM),MMA primary hepatocytes; [3],−28.7 ± 7.3%
same,12C-Methylmalonyl-CoA (13C-M-CoA) % change at 30 μM,"MMA primary hepatocytes; low propiogenic media, static",−76.5±13.2%
same,13C-Methymalonic acid % change at 30 μM,"MMA primary hepatocytes; low propiogenic media, static",−83.2 ± 5%
same,13C-Propionyl-CoA (13C-P-CoA) % change at 30 μM,"MMA primary hepatocytes; low propiogenic media, static",−77.6±9.8%
same,12C-Acetyl-CoA Percent change (30 μM),MMA primary hepatocytes; [4],−35.5 ± 18.1%
same,CoASH Percent change (30 μM),MMA primary hepatocytes; [4],−47.7 ± 13.4%
same,EC50,[1]; 1 mM 13C-KIVA,0.89 µM
same,EC50,[1]; 3 mM 13C-ILE,0.42 µM
same,EC50,[1]; 5 mM 13C-THR,1.24 µM
same,EC50,[1]; 5 mM 13C-propionate,15.3 µM
same,EC50,"PA primary hepatocytes; PA pHeps, high propiogenic media, static, read-out: 13C-Propionyl-CoA (13C-P-CoA) EC50",1.7 ± 1 µM
same,EC90,"PA primary hepatocytes; PA pHeps, high propiogenic media, static, read-out: 13C-Propionyl-CoA (13C-P-CoA) EC90",11.6 ± 7.4 µM
same,EC50,"PA primary hepatocytes; PA pHeps, high propiogenic, static culture, read-out: 12C-Acetyl-CoA EC50",0.7 ± 0.5 µM
same,EC90,"PA primary hepatocytes; PA pHeps, high propiogenic, static culture, read-out: 12C-Acetyl-CoA EC90",1.9 ± 1.3 µM
same,EC50,"PA primary hepatocytes; PA pHeps, high propiogenic, static culture, read-out: CoASH EC50",2.1 ± 1.6 µM
same,EC90,"PA primary hepatocytes; PA pHeps, high propiogenic, static culture, read-out: CoASH EC90",11.1 ± 13 µM
same,EC50,"PA primary hepatocytes; PA pHeps, high propiogenic, static culture, read-out: Compound 5-CoA (formation) EC50",2.6 ± 1.6 µM
same,EC90,"PA primary hepatocytes; PA pHeps, high propiogenic, static culture, read-out: Compound 5-CoA (formation) EC90",42 ± 45.8 µM
same,EC50,"PA primary hepatocytes; PA pHeps, low propiogenic media, static, read-out: 13C-Propionyl-CoA (13C-P-CoA) EC50",2 ± 1.8 µM
same,EC90,"PA primary hepatocytes; PA pHeps, low propiogenic media, static, read-out: 13C-Propionyl-CoA (13C-P-CoA) EC90",6.9 ± 5.4 µM
same,EC50,"PA primary hepatocytes; PA pHeps, low propiogenic, static culture, read-out: 12C-Acetyl-CoA EC50",0.4 ± 0.2 µM
same,EC90,"PA primary hepatocytes; PA pHeps, low propiogenic, static culture, read-out: 12C-Acetyl-CoA EC90",1.6 ± 1.3 µM
same,EC50,"PA primary hepatocytes; PA pHeps, low propiogenic, static culture, read-out: CoASH EC50",0.9 ± 0.3 µM
same,EC90,"PA primary hepatocytes; PA pHeps, low propiogenic, static culture, read-out: CoASH EC90",9.1 ± 5.8 µM
same,EC50,"PA primary hepatocytes; PA pHeps, low propiogenic, static culture, read-out: Compound 5-CoA (formation) EC50",1.4 ± 0.6 µM
same,EC90,"PA primary hepatocytes; PA pHeps, low propiogenic, static culture, read-out: Compound 5-CoA (formation) EC90",15.3 ± 11.3 µM
same,EC90,"PA primary hepatocytes; static cell culture, PA and MMA pHeps, low and high propiogenic media together, read-out: average EC90 value across all biomarkers",11 ± 9.6 µM
same,13C-Propionyl-CoA (13C-P-CoA) % change at 30 μM,"PA primary hepatocytes; PA pHeps, high propiogenic media, static",−85.3±9.1%
same,12C-Acetyl-CoA Percent change (30 μM),PA primary hepatocytes; [5],−27 ± 3.4%
same,CoASH Percent change (30 μM),PA primary hepatocytes; [5],−48 ± 14.3%
same,13C-Propionyl-CoA (13C-P-CoA) % change at 30 μM,"PA primary hepatocytes; PA pHeps, low propiogenic media, static",−76.4±12.6%
same,12C-Acetyl-CoA Percent change (30 μM),PA primary hepatocytes; [6],−36.6 ± 13.5%
same,CoASH Percent change (30 μM),PA primary hepatocytes; [6],−55.2 ± 7.1%
same,EC50,"[2]; Homo sapiens, Hepatocyte, read-out: Compound 5-CoA (formation) EC50",8.3 ± 8 µM
same,EC90,"[2]; Homo sapiens, Hepatocyte, read-out: Compound 5-CoA (formation) EC90",26.1 ± 3.1 µM
same,12C-Acetyl-CoA Percent change at 30 μM,[2],20 ± 2.9%
same,CoASH Percent change at 30 μM,[2],−35.2 ± 3%
